The target in one data set is DAT (Rattus norvegicus, UniProt P23977). As to the kind of experiment: DAT binding assay, [3H]WIN 35,428, rat striatal membranes. Particulars: 8c vs 10a, 9c vs 11a.
Data set [1] is described as follows: Mouse microsomal stability assay. Format: in vitro ADME. Conditions: mouse liver microsomes. For orientation: Microsomes from liver hold many membrane-bound enzymes, among them those of drug oxidation.
For data set [2] the following is noted: introductory statement, no reference given; cited from earlier work.
Another data set addresses NET (Rattus norvegicus, UniProt Q63380). As to the kind of experiment: NET binding assay, [3H]nisoxetine, rat frontal cortex membranes.
The next data set has as its system mice. As to the kind of experiment: Locomotor activity studies in mice. Particulars: for locomotion: i.p.
In data set [3] the target is Dopamine D2 receptor Gi1 activation (Homo sapiens, UniProt P14416). The data set is classed as cell-based.
Dopamine D2 receptor Gi1 activation, sequence (P14416 whole entry): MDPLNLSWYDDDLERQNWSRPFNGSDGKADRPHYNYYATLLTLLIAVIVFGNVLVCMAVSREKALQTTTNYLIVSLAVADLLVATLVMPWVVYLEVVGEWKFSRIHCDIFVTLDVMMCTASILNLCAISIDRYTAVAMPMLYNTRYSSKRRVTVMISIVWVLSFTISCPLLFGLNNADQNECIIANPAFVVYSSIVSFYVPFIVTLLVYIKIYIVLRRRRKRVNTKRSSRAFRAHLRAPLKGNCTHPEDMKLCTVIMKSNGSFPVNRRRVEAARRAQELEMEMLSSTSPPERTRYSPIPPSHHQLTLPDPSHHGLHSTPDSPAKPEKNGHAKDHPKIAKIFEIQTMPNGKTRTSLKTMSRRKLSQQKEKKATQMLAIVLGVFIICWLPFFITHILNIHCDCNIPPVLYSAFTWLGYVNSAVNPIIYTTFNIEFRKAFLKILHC

NET, sequence (Q63380 1-617): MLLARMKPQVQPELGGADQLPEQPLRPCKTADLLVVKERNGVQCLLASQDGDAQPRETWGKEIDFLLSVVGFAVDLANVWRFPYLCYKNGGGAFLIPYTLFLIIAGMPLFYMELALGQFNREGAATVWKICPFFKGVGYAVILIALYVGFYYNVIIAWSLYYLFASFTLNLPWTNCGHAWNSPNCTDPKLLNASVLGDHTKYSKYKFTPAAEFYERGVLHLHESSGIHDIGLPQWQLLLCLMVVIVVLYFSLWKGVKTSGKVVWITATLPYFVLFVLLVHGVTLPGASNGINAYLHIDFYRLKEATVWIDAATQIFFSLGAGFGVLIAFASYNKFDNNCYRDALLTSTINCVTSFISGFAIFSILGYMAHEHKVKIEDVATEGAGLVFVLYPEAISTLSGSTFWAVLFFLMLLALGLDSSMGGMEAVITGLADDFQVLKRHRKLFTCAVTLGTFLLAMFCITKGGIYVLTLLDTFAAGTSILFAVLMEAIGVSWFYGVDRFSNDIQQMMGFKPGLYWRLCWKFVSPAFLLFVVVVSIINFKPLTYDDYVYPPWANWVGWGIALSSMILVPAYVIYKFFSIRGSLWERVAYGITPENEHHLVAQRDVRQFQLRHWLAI
DAT, sequence (P23977 whole entry): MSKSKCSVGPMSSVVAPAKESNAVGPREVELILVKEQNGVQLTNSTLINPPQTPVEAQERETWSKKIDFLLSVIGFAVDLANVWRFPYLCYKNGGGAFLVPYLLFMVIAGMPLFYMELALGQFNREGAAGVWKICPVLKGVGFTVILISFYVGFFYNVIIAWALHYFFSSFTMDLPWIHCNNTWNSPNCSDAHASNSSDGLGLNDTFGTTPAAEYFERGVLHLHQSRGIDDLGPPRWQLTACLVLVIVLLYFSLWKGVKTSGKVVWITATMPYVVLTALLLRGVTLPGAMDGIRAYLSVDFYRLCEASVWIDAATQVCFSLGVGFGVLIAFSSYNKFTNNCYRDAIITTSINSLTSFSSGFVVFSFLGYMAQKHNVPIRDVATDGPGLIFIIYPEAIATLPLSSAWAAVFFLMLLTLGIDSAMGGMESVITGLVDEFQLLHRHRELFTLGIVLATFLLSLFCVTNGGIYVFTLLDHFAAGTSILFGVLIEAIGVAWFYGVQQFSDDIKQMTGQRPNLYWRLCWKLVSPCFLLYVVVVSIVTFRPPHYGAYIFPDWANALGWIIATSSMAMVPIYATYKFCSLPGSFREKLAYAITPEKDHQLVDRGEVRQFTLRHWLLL

For `CC(O)CN1CCN(CC[S+]([O-])C(c2ccccc2)c2ccccc2)CC1` (centres unmarked) [Compound 9c, 1-(4-(2-(Benzhydrylsulfinyl)ethyl)piperazin-1-yl)propan-2-ol], the “fold decrease in DAT affinity on removal of the phenyl group” value at DAT is 187 fold.

As to `O=C(C[S+]([O-])C(c1ccc(F)cc1)c1ccc(F)cc1)N1CCN(Cc2ccc(F)cc2)CC1` (centres unmarked) [Compound 14e, 2-((Bis(4-fluorophenyl)methyl)sulfinyl)-1-(4-(4-fluorobenzyl)piperazin-1-yl)ethan-1-one], the “time in which metabolized” value in data set [1] is less than 30 min.

`CC(O)CN1CCN(CCSC(c2ccccc2)c2ccccc2)CC1` (centres unmarked) [Compound 8c, 1-(4-(2-(Benzhydrylthio)ethyl)piperazin-1-yl)propan-2-ol]: the “fold decrease in DAT affinity on removal of the phenyl group” value at DAT is listed as 25 fold.

In the case of `NC(=O)C[S+]([O-])C(c1ccccc1)c1ccccc1` (centres unmarked) [Compound 2, 2-[(diphenylmethyl)sulfinyl]acetamide], in data set [2], the water solubility result is “essentially insoluble in water”.

A word on the Ki: it is a measure of affinity in units of concentration, obtained from inhibition or displacement. A low value points to tighter binding. In turn, `CC(O)CN1CCN(C(=O)CSC(c2cccc(Cl)c2)c2cccc(Cl)c2)CC1` (centres unmarked) [Compound 13g, 2-((Bis(3-chlorophenyl)methyl)thio)-1-(4-(2-hydroxypropyl)piperazin-1-yl)ethan-1-one] yielded a Ki at NET of more than 50 µM.

For the molecule `CC(O)CN1CCN(CC[S+]([O-])C(c2cccc(Cl)c2)c2cccc(Cl)c2)CC1` (centres unmarked) [Compound 9i, 1-(4-(2-((Bis(3-chlorophenyl)methyl)sulfinyl)ethyl)piperazin-1-yl)propan-2-ol], the Ki on NET is more than 50 µM.

For the molecule `[O-][S+](CCN1CCN(CC(O)Cc2ccccc2)CC1)C(c1ccccc1)c1ccccc1` (centres unmarked) [Compound 11a, 1-(4-(2-(Benzhydrylsulfinyl)ethyl)piperazin-1-yl)-3-phenylpropan-2-ol], the “time in which metabolized” value in data set [1] is listed as less than 30 min.

For the molecule `[O-][S+](CCN1CCN(Cc2ccc(F)cc2)CC1)C(c1ccc(F)cc1)c1ccc(F)cc1` (centres unmarked) [Compound 9f, 1-(2-((Bis(4-fluorophenyl)methyl)sulfinyl)ethyl)-4-(4-fluorobenzyl)piperazine], the Ki on NET was more than 50 µM. For the same molecule, in data set [1], the “time in which metabolized” value is less than 30 min.

Consider `CC(O)CN1CCN(C(=O)CSC(c2ccc(F)cc2)c2ccc(F)cc2)CC1` (centres unmarked) [Compound 13c, 2-((Bis(4-fluorophenyl)methyl)thio)-1-(4-(2-hydroxypropyl)piperazin-1-yl)ethan-1-one], for which the “time in which metabolized” value in data set [1] is recorded as less than 30 min.

For `[O-][S+](CCN1CCN(CC(O)Cc2ccccc2)CC1)C(c1ccc(F)cc1)c1ccc(F)cc1` (centres unmarked) [Compound 11b, 1-(4-(2-((Bis(4-fluorophenyl)methyl)sulfinyl)ethyl)piperazin-1-yl)-3-phenylpropan-2-ol], the “locomotor stimulation compared to cocaine” value is “only moderate locomotor stimulation in mice and was substantially less efficacious than cocaine” with mice (mice); “far less efficacious than cocaine” in the data set with mice (mice, listed as 11d). For the same molecule, the locomotion result in the data set on mice (mice, 30 mg/kg) is recorded as “significant dose-dependent increase in locomotion”.

A word on the IC50: it is the concentration at which inhibition is half-maximal. A high value points to weaker potency in that assay. For the molecule `NC(=O)C[S@@+]([O-])C(c1ccccc1)c1ccccc1` [(R)-2, reference compound], the locomotion entry is “very mild increase” in the data set with mice (mice, 10 mg/kg) and “significant dose-dependent increase in locomotion” in the data set with mice (mice, 30 mg/kg). This molecule also registered an IC50 in data set [3] of more than 10 µM.

Turning to `O=C(C[S+]([O-])C(c1ccc(F)cc1)c1ccc(F)cc1)N1CCN(CCCc2ccccc2)CC1` (centres unmarked) [Compound 14b, 2-((Bis(4-fluorophenyl)methyl)sulfinyl)-1-(4-(3-phenylpropyl)piperazin-1-yl)ethan-1-one], the “time in which metabolized” value in data set [1] is less than 30 min.

Turning to `COC(=O)[C@H]1[C@@H](OC(=O)c2ccccc2)C[C@@H]2CC[C@H]1N2C` [cocaine, reference compound], the locomotion result with mice (mice, 3, 10 mg/kg) is “robust dose-dependent increase in locomotion”.

`[O-][S+](CCN1CCN(Cc2ccc(Cl)cc2)CC1)C(c1ccc(F)cc1)c1ccc(F)cc1` (centres unmarked) [Compound 9h, 1-(2-((Bis(4-fluorophenyl)methyl)sulfinyl)ethyl)-4-(4-chlorobenzyl)piperazine] returned an inhibition constant (Ki) at NET of more than 50 µM. The “time in which metabolized” value in data set [1] was less than 30 min.

At NET, `CC(O)CN1CCN(C(=O)C[S+]([O-])C(c2cccc(Cl)c2)c2cccc(Cl)c2)CC1` (centres unmarked) [Compound 14g, 2-((Bis(3-chlorophenyl)methyl)sulfinyl)-1-(4-(2-hydroxypropyl)piperazin-1-yl)ethan-1-one] displayed an inhibition constant (Ki) of more than 50 µM.

As for `Fc1ccc(C(SCCNCCCc2ccccc2)c2ccc(F)cc2)cc1` [Compound 4, N-(2-((bis(4-fluorophenyl)methyl)thio)ethyl)-3-phenylpropan-1-amine], the IC50 in data set [3] was more than 10 µM.

With `[O-][S+](CCN1CCN(Cc2ccc(C(F)(F)F)cc2)CC1)C(c1ccc(F)cc1)c1ccc(F)cc1` (centres unmarked) [Compound 9g, 1-(2-((Bis(4-fluorophenyl)methyl)sulfinyl)ethyl)-4-(4-(trifluoromethyl)benzyl)piperazine], on NET, the Ki is more than 50 µM. For the same molecule, the “time in which metabolized” value in data set [1] was less than 30 min.

`CCc1cc(Cl)c(OC)c(C(=O)NC[C@@H]2CCCN2CC)c1O` [eticlopride] had an IC50 in data set [3] of 0.0021 ± 0.0008 µM.

In turn, `CCCCN1C2CCC1CC(OC(c1ccc(F)cc1)c1ccc(F)cc1)C2` (centres unmarked) [Compound 3, 3-(bis(4-fluorophenyl)methoxy)-8-butyl-8-azabicyclo[3.2.1]octane] returned an IC50 in data set [3] of 2 ± 0.73 µM.

The values above are taken from publication PMC5161041 (Journal of medicinal chemistry, 2016).
